The text below walks through data of patent US12312352B2, “Use of a DPP-4 inhibitor in SIRS and/or sepsis” (Boehringer ingelheim International GmbH, priority 2012, dated 2025).

In one data set the test system is septic rats. Briefly: Survival of septic rats (LPS 10 mg/kg i.p.) with and without linagliptin treatment. It counts as in vivo, female Wistar rats. The settings on record: 24 hours after LPS 10 mg/kg i.p.; linagliptin diet from 2 days before LPS; LPS alone about 28%; p=0.015 LPS vs. LPS+Linagliptin; preliminary data. How it is done:
Animals are injected at day 2 with 10 mg/kg LPS (lipopolysaccharide) i.p. and observed for 4 additional days.
It should be noted that the survival curve only represents preliminary data (“pseudo Kaplan-Meier-curve”) since the exact time point of death of the rats is not assessed. The female Wistar rats are injected with LPS in the morning, monitored during the day and transferred back to the stable in the evening. Deaths are registered in the morning of the next day.

The nature of data set [1]: Mean plasma concentration of linagliptin in rats on linagliptin diet. In kind it is in vivo. The settings on record: diet containing 0.083 mg/kg linagliptin.
The subject of another data set is septic animals. The settings on record: cited from earlier work.
Data set [2] can be described thus: Safety and tolerability in people with type 2 diabetes.
Another data set deals with septic mice. Kind of data set: Survival in experimental sepsis, first study: LPS 20 mg/kg i.p. on Day 6 of 7 days treatment. The settings on record: linagliptin 5 mg/kg/d in drinking water (p=0.067), liraglutide 0.2 mg/kg/d s.c. injection (p=0.005), placebo/LPS 100% die within 48 h.
Data set [3] is described as follows: Pharmacokinetics of BI 1356 after multiple oral doses (1, 2.5, 5 or 10 mg once daily for 12 days) in patients with type 2 diabetes.

For the compound `CC#CCn1c(N2CCC[C@@H](N)C2)nc2c1c(=O)n(Cc1nc(C)c3ccccc3n1)c(=O)n2C` [linagliptin], the mortality result in the data set on septic rats is listed as “No mortality”. The compound further showed a mean plasma concentration in data set [1] of 50 to 150 nM. For the same compound, the “vascular dysfunction, vascular inflammation and aortic, cardiac and blood oxidative stress” value in the data set with septic animals (experimental sepsis model) is “improves vascular dysfunction and vascular inflammation as well as aortic, cardiac, and blood oxidative stress”. In addition, the “immune cell infiltration into the vascular tissue” value in the data set on septic animals (septic animals, previous studies) was “prevention of immune cell infiltration into the vascular tissue”. Besides, the safety and tolerability result in data set [2] is listed as “placebo-like”. In the data set on septic mice, the “survival vs placebo/LPS group” value was “trend for a higher survival rate”. The “form and route of excretion” value in data set [3] (human, in vivo) is “primarily excreted unchanged via the bile”. For the same compound, the “main organ of excretion” value in data set [3] (therapeutic oral dose levels) is listed as “mainly excreted via the liver”.
